Reference: PubChem BioAssay AID2060343 (Molecular Pharmacology Branch, DTP, NCI, 2025)

Test system: 138582-337-R-J1-PDC spheroids with HUVEC/MSC, viability
Assay: Anticancer human tumor 138582-337-R-J1-PDC patient-derived Merkel cell tumor cell line growth inhibition [IpAb]
Conditions: for IC50: curve of first compound; for viability, T/C: stronger effect = lower value
Description: Combinatorial screen of targeted agents with ipatasertib and abemaciclib in multi-cell type tumor spheroids
A high-throughput screen of multi-cell type tumor spheroids was designed to identify active combinations of targeted small molecules and ipatasertib or abemaciclib. Complex spheroids include a stromal component modeled by human endothelial cells (HUVEC) and fibroblasts modeled by human mesenchymal stem cells (MSCs). The concentration ranges selected for each drug and investigational agent were based upon clinically achievable concentrations if the clinical Cmax of the agent was known.
Compounds. The drugs and investigational agents: ipatasertib (NSC767898), abemaciclib(NSC768073), selumetinib (NSC741078), trametinib (758246), adavosertib (NSC754352), everolimus (NSC733504), sapanisertib (NSC764658), vemurafenib (NSC761431), venetoclax (NSC766270), copanlisib (NSC809693), apelisib (NSC765974), palbociblib (NSC758247), vemurafenib (NSC761431), dabrafenib (NSC764134), ravoxertinib (NSC781343), BMS-387032 (NSC767048), sotorasib (NSC818433), talazoparib (NSC767125) and afursertib (NSC778305), were obtained from the National Cancer Institute (NCI) Developmental Therapeutics Program Chemical Repository. The FDA-approved anticancer drug set is available from the NCI Developmental Therapeutics Program. […] The stock solutions were prepared in dimethyl sulfoxide (DMSO, Sigma-Aldrich, St. Louis, MO, cat. D2650) at 800-fold the tested concentration and stored at -70 degrees C prior to their use. All drugs and investigational agents were tested over a range starting from a high concentration at or near the clinical Cmax and decreasing in half-log increments. If the clinical Cmax for an agent had not been determined, the highest concentration tested was 10 microM.
NCI60 Cell Culture. NCI60 cell lines were obtained from the NCI Developmental Therapeutics Program Tumor Repository. For each lot of cells, the Repository performed Applied Biosystems AmpFLSTR Identifiler testing with PCR amplification to confirm consistency with the published Identifier STR profile for each cell line. Cells were kept in continuous culture for no more than 20 passages. The optimal seeding densities for each of the cell lines at each time point assessed were determined prior to performing the concentration response studies. Briefly, the NCI60 human tumor lines were grown as monolayers in RPMI 1640 medium supplemented with 10% FBS and 2 mmol/L L-glutamine.
An additional 9 lines were from the NCI60 cell line panel including MDA-MB-231 breast carcinoma, MDA-MB-468 breast carcinoma, MCF7 breast carcinoma, Hs578T breast carcinoma, MALME-3M melanoma, SK-MEL-2 melanoma, SK-OV-3 ovarian carcinoma, DU-145 prostate carcinoma, PC-3 prostate carcinoma, all cell lines along with major genetic alterations are listed on Table 2. Pooled donor human umbilical vein endothelial cells (HUVEC, Lonza, cat. CC-2519) and human mesenchymal stem cells (hMSC, Lonza, cat. PT-2501) were purchased from Lonza (Walkersville, MD).
PDMR cell lines were grown in complete medium (DC medium): Dulbecco's modified Eagle's medium (DMEM)/F12 supplemented with 5% fetal bovine serum (FBS), 2 mM L-glutamine, 100 U/mL penicillin and 100 µg/ml streptomycin, 0.4 µg/ml hydrocortisone, 10 ng/ml epidermal growth factor (EGF) recombinant human protein, 24 µg/mL adenine, and 0.1 mg/mL primocin. During culture from frozen stock vials, PDMR cells were cultured in the same medium containing 10 µM Y-27632 (see Table 3). The PDCs were cultured in complete DMEM/F12 media without 10 microM Y-27632 dihydrochloride for at least two passages prior to the screen. The pooled donor HUVEC and hMSC were cultured in endothelial cell growth medium 2 (PromoCell, Heidelberg, Germany, cat. C-22011) and mesenchymal stem cell growth medium 2 (PromoCell, cat. C-28009), respectively. For all experiments, HUVEC and hMSC were used at passages </=5.
[…]

[1] = second compound 0.1 µM, first compound 0.0316 µM
[2] = second compound 0.1 µM, first compound 0.1 µM
[3] = second compound 0.1 µM, first compound 0.316 µM
[4] = second compound 0.1 µM, first compound 1 µM
[5] = second compound 0.316 µM, first compound 0.0316 µM
[6] = second compound 0.316 µM, first compound 0.1 µM
[7] = second compound 0.316 µM, first compound 0.316 µM
[8] = second compound 0.316 µM, first compound 1 µM
[9] = second compound 1 µM, first compound 0.0316 µM
[10] = second compound 1 µM, first compound 0.1 µM
[11] = second compound 1 µM, first compound 0.316 µM
[12] = second compound 1 µM, first compound 1 µM
[13] = second compound 3.16 µM, first compound 0.0316 µM
[14] = second compound 3.16 µM, first compound 0.1 µM
[15] = second compound 3.16 µM, first compound 0.316 µM
[16] = second compound 3.16 µM, first compound 1 µM
[17] = second compound 10 µM, first compound 0.0316 µM
[18] = second compound 10 µM, first compound 0.1 µM
[19] = second compound 10 µM, first compound 0.316 µM
[20] = second compound 10 µM, first compound 1 µM
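Note: spheroids exposed to compounds for seven days.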
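Throughout, for viability, T/C: 100% = DMSO vehicle control viability.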

SMILES	IC50 (second compound 0.1 µM)	IC50 (second compound 0.316 µM)	IC50 (second compound 1 µM)	IC50 (second compound 3.16 µM)	IC50 (second compound 10 µM)	viability, T/C [1]	viability, T/C [2]	viability, T/C [3]	viability, T/C [4]	viability, T/C [5]	viability, T/C [6]	viability, T/C [7]	viability, T/C [8]	viability, T/C [9]	viability, T/C [10]	viability, T/C [11]	viability, T/C [12]	viability, T/C [13]	viability, T/C [14]	viability, T/C [15]	further results
COc1c(OCCCN2CCOCC2)ccc2c3n(c(=NC(=O)c4cnc(N)nc4)nc12)CCN3 + CC(C)NCC(C(=O)N1CCN(c2ncnc3c2C(C)CC3O)CC1)c1ccc(Cl)cc1	46.5 nM	27.3 nM	11.8 nM	< 3.16 nM	< 3.16 nM	58.3%	32.5%	19.8%	3.52%	49.4%	28.9%	16.7%	2.34%	39.3%	25.6%	13.9%	1.91%	33.9%	21.5%	13.9%	viability, T/C (second compound 0.1 µM, first compound 0.00316 µM): 81.3%; viability, T/C (second compound 0.1 µM, first compound 0.01 µM): 74.2%; viability, T/C (second compound 0.316 µM, first compound 0.00316 µM): 74.7%; viability, T/C (second compound 0.316 µM, first compound 0.01 µM): 63%; viability, T/C (second compound 1 µM, first compound 0.00316 µM): 59.3%; viability, T/C (second compound 1 µM, first compound 0.01 µM): 53%; viability, T/C (second compound 3.16 µM, first compound 0.00316 µM): 46.8%; viability, T/C (second compound 3.16 µM, first compound 0.01 µM): 41.7%; viability, T/C [16]: 1.61%; viability, T/C (second compound 10 µM, first compound 0.00316 µM): 35.6%; viability, T/C (second compound 10 µM, first compound 0.01 µM): 31.9%; viability, T/C [17]: 24.8%; viability, T/C [18]: 16.3%; viability, T/C [19]: 6.62%; viability, T/C [20]: 1.13%
Cc1nc(NC(=O)N2CCCC2C(N)=O)sc1-c1ccnc(C(C)(C)C(F)(F)F)c1 (stereo not given) + CC(C)NCC(C(=O)N1CCN(c2ncnc3c2C(C)CC3O)CC1)c1ccc(Cl)cc1	1490 nM	961 nM	704 nM	< 31.6 nM	< 31.6 nM	93.4%	77.3%	67.5%	52.8%	81.3%	71.7%	63.1%	42.7%	67.2%	60.4%	59.5%	43.5%	49.9%	43.9%	44.9%	viability, T/C (second compound 0.1 µM, first compound 3.16 µM): 47.6%; viability, T/C (second compound 0.1 µM, first compound 10 µM): 22.7%; viability, T/C (second compound 0.316 µM, first compound 3.16 µM): 45.7%; viability, T/C (second compound 0.316 µM, first compound 10 µM): 16.4%; viability, T/C (second compound 1 µM, first compound 3.16 µM): 36.4%; viability, T/C (second compound 1 µM, first compound 10 µM): 14.2%; viability, T/C [16]: 35.7%; viability, T/C (second compound 3.16 µM, first compound 3.16 µM): 27.1%; viability, T/C (second compound 3.16 µM, first compound 10 µM): 5.2%; viability, T/C [17]: 40.5%; viability, T/C [18]: 40%; viability, T/C [19]: 32.9%; viability, T/C [20]: 25.7%; viability, T/C (second compound 10 µM, first compound 3.16 µM): 15.2%; viability, T/C (second compound 10 µM, first compound 10 µM): 1.06%
